From patent US7585851B2, “3′-prodrugs of 2′-deoxy-β-L-nucleosides” (priority 2000, dated 2009) come the findings set out here.

What is called CC50 is the concentration at which the toxic effect on the cells reaches its halfway point. By EC90 is commonly meant the point of the concentration-response curve where the effect stands at 90%. For orientation: IC50 means the concentration needed to halve the response being measured.

The structures appear in SMILES notation.

In data set [1] the test system is human hepatoma cell line 2.2.15. Nature of the data set: Cytotoxicity in 2.2.15 cells. The conditions noted are these: 2.2.15 cells; 50% inhibition of neutral red dye uptake (Table 25).
For data set [2] the following is noted: monkey, in vivo, po.
Data set [3] is described as follows: Cytotoxicity in 2.2.15 cells. The note with it: human, 2.2.15 hepatoma cells.
For another data set, the system named is HBV. Nature of the data set: Anti-HBV activity in HBV-expressing 2.2.15 cells (HBV DNA reduction).
The subject of data set [4] is human erythroid burst-forming (BFU-E) progenitor cells. The format is cell-based. The conditions noted are these: human bone marrow clonogenic assay. The source says: (§1) In particular, anemia and neutropenia are the most common drug-related clinical toxicities associated with the anti-HIV drug zidovudine (ZDV).
The test system of data set [5] is human granulocyte-macrophage colony-forming (CFU-GM) progenitor cells. Format: cell-based. The note with it: human bone marrow clonogenic assay.
Description: as §1

In a further data set the test system is HepG2 cells. The conditions noted are these: human, 24 h, 10 μM.
For data set [6], the system named is primary human hepatocytes. The conditions noted are these: 24 h, 10 μM.
In the next data set the target is human DNA polymerase β (Homo sapiens, UniProt P06746). The format is biochemical. The conditions noted are these: highest concentration tested 100 μM; read-out: IC50 Human DNA pol β. The source says: (§2) Nucleosides and nucleoside analogs are usually metabolized within cells to their TP derivatives. Cellular DNA polymerases are routinely responsible for normal nuclear and mitochondrial DNA synthesis and repair. Because the TP metabolites are potential substrates for DNA polymerases, studies were undertaken to determine if L-dC-TP inhibited human DNA polymerases.

The target of a further data set is T1, human DNA polymerase γ (Homo sapiens, UniProt P54098).
T1 sequence (P54098 1-1239): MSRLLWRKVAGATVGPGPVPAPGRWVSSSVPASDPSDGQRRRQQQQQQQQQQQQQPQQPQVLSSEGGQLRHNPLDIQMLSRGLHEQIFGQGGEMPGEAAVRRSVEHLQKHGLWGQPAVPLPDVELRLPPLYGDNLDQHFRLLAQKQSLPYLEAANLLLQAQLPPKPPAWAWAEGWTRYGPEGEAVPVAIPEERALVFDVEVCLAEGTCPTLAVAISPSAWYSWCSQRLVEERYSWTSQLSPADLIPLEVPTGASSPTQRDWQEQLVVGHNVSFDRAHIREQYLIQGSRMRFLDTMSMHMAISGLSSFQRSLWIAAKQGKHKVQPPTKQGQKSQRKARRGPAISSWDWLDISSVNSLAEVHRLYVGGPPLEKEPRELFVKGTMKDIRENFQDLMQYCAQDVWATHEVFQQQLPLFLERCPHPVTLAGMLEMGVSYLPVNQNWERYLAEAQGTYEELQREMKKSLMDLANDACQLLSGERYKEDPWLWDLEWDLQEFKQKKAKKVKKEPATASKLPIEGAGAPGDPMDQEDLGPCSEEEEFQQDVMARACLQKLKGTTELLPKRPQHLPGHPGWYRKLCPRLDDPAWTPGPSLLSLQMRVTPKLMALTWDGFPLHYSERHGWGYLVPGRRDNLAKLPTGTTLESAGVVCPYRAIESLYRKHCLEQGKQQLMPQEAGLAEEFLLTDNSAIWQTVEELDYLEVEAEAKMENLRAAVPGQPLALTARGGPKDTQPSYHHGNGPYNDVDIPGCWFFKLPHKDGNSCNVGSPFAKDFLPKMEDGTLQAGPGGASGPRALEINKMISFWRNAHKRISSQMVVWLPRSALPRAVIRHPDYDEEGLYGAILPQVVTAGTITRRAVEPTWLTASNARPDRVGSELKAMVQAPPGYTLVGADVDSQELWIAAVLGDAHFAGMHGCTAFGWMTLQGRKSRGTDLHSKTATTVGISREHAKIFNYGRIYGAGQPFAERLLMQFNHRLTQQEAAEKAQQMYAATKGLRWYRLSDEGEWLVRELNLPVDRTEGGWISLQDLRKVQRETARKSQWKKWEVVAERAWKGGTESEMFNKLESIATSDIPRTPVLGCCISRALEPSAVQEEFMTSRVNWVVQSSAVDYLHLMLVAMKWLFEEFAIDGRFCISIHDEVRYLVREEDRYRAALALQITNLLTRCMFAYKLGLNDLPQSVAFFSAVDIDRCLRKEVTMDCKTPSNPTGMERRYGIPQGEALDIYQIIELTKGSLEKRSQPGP
Format: biochemical. The conditions noted are these: highest concentration tested 100 μM.
Description: as §2

Data set [7] concerns the target virion-associated DNA polymerase of WHV (Woodchuck hepatitis B virus, UniProt P03160). Nature of the data set: biochemical.

Chain of virion-associated DNA polymerase of WHV (P03160 whole entry): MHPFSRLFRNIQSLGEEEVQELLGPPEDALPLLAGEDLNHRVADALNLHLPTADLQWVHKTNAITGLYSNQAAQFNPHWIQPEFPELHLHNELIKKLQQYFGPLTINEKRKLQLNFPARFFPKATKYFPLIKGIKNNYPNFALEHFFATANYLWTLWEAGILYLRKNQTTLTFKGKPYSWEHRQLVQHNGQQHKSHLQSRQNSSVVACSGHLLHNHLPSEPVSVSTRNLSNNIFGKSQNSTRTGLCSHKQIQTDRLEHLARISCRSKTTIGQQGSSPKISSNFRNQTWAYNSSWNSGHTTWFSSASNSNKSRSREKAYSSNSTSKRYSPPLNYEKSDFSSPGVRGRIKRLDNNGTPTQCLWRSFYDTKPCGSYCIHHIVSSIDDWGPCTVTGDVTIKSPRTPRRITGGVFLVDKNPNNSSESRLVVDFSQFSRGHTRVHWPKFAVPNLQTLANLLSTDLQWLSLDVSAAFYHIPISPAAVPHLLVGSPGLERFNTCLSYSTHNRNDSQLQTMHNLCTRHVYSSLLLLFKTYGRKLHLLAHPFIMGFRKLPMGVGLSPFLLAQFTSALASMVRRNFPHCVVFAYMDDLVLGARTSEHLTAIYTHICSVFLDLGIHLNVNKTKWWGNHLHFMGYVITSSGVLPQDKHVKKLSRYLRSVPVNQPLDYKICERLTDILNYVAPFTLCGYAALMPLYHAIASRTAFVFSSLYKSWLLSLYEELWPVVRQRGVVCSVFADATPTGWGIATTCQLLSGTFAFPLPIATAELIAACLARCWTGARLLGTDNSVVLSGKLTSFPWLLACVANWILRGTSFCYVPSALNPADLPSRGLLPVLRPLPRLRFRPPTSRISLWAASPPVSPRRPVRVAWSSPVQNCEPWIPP

As for `Cc1cn([C@@H]2C[C@@H](O)[C@H](CO)O2)c(=O)[nH]c1=O` [L-dT, β-L-2′-deoxythymidine], in [1], the midpoint of cytotoxicity, the CC50, lay at 3020 µM.
As for `CC(=O)OC[C@@H]1O[C@H](n2ccc(N)nc2=O)C[C@H]1OC(C)=O` [3′5′-diacetyl-L-dC, 3′,5′-Di-O-acetyl-2′-deoxy-β-L-cytidine], the “% BA (bioavailability of L-dC)” value in data set [2] is on record as 23.0 ± 6.5%.
`Nc1ccn([C@@H]2CS[C@H](CO)O2)c(=O)n1` [lamivudine, (−)-enantiomer of cis-2-hydroxymethyl-5-(cytosin-1-yl)-1,3-oxathiolane, reference compound] yielded a CC50 in data set [3] of more than 1000 µM. The “S.I. (CC50/EC90)” value with HBV (2.2.15 cells) was >5,000. The EC90 with HBV (Hepatitis B virus) was 0.18 ± 0.007 µM. Besides, the concentration for half-maximal inhibition (IC50) in data set [4] and in [5] was more than 10 µM in each case.
As for `O=c1ccn([C@@H]2C[C@@H](O)[C@H](COP(=O)(O)OP(=O)(O)OP(=O)(O)O)O2)c(=O)[nH]1` [L-dU-TP, β-L-2′-deoxyuridine 5′-triphosphate], the results for the intracellular metabolite level (with HepG2 cells; in data set [6]) were 18.2 ± 1.0 µM and 43.5 ± 27 µM, respectively. Moreover, the half-inhibitory concentration (IC50) at human DNA polymerase β was more than 100 µM; at human DNA polymerase γ it was more than 100 µM; in data set [7], 5.26 µM.
